Source: paper PMC4853472, “Trapping mammalian protein complexes in viral particles” (Nature Communications, 2016)

What was measured:
[1] = target: T1, HMG-CoA reductase enzyme (HMGCR) (Homo sapiens, UniProt P04035); assay: Virotrap: trapping in GAG-eDHFR virus-like particles, LC-MS/MS; type: cell-based; settings: MTX-PEG-simvastatin conjugate, not free simvastatin; 1 uM on HEK293T producer cells; DMSO and unrelated-bait controls
T1 construct: endogenous protein of HEK293T cells, trapped in GAG-eDHFR virus-like particles, identified by LC-MS/MS
T1 sequence (P04035 1-888): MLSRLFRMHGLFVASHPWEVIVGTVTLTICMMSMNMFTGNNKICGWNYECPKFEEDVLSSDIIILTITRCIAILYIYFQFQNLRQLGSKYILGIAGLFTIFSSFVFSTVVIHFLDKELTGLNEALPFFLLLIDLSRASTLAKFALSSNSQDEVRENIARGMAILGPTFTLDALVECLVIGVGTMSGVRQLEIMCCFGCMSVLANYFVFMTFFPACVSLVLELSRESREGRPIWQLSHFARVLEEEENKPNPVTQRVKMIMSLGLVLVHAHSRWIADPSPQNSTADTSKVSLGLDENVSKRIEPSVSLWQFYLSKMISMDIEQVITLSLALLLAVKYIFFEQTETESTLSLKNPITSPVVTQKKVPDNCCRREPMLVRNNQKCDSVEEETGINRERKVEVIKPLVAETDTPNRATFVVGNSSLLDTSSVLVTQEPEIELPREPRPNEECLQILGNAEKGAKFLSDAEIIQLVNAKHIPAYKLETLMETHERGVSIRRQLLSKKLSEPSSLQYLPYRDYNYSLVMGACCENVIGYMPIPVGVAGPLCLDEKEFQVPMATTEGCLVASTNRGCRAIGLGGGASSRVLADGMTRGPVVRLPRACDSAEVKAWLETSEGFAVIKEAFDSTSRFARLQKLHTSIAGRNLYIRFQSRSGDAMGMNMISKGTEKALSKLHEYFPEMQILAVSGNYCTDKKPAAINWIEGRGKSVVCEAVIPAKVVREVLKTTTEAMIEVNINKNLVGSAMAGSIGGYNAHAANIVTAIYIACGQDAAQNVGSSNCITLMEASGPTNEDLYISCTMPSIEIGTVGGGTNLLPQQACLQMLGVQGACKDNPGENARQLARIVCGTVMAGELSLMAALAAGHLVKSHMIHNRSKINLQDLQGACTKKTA

MAL TIR (Homo sapiens) = MAL TIR (Homo sapiens) (UniProt P58753); settings: cited from earlier work
Chain of MAL TIR (Homo sapiens) (P58753 81-216): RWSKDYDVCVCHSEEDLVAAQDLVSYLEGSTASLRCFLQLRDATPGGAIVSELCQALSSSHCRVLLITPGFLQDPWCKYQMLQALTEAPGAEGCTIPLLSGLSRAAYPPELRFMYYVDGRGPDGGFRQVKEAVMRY

Molecule	Protein trapped in virus-like particles (LC-MS/MS) [1]	Kd (MAL TIR (Homo sapiens)) [µM]
C[C@H]1C=C2C=C[C@H](C)[C@H](CC[C@@H]3C[C@@H](O)CC(=O)O3)[C@H]2[C@@H](OC(=O)C(C)(C)Cc2cn(CCOCCOCCOCCOCCOCCNC(=O)CC[C@H](NC(=O)c3ccc(N(C)Cc4cnc5nc(N)nc(N)c5n4)cc3)C(=O)O)nn2)C1 [MTX-linked simvastatin]	consistent enrichment of the known targets for simvastatin (HMG-CoA reductase enzyme (HMGCR))	–
MYD88 TIR (from UniProt Q99836)	–	8
